Source: patent US12509452B2, “Substituted-isoxazoline-containing aromatic compound, preparation method therefor, herbicidal composition and use thereof” (QINGDAO KINGAGROOT CHEMICAL COMPOUND CO., LTD., priority 2019, dated 2025)

Columns and labels:
Format in all cases: in vivo
Alopecurus japonicus = assay: weeding effect in post-emergence stage
Summary of the method: (§1)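 Post-emergence spray-tower application at 500, 250, 125, 60, 15 or 7.5 g a.i./ha, formulated in acetone with Tween 80 and 1.5 L/ha methyl oleate synergist, to pot-grown plants at the 2-3 leaf stage. After 3 weeks in the greenhouse, fresh-weight control rate graded levels 0-5; three replicates averaged.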

Beckmannia syzigachne = assay: weeding effect in post-emergence stage
Summary of the method: as §1

Conyza japonica = assay: weeding effect in post-emergence stage
Summary of the method: as §1

Rorippa indica = assay: weeding effect in post-emergence stage
Summary of the method: as §1

[1] = system: Echinochloa crusgalli, Scirpus juncoides and Bidens tripartita L. collected from Heilongjiang Province of China; assay: resistance tests of the collected rice field weeds; conditions: seeds collected from Heilongjiang Province of China
From the text: Note: The seeds of Echinochloa crusgalli, Scirpus juncoides and Bidens tripartita L. were collected from Heilongjiang Province of China.

Structure (SMILES)	weeding effect in post-emergence stage, Alopecurus japonicus (activity level) (Alopecurus japonicus; dose 7.5 g a.i./ha)	weeding effect in post-emergence stage, Alopecurus japonicus (activity level) (Alopecurus japonicus; dose 15 g a.i./ha)	weeding effect in post-emergence stage, Beckmannia syzigachne (activity level) (Beckmannia syzigachne; dose 7.5 g a.i./ha)	weeding effect in post-emergence stage, Beckmannia syzigachne (activity level) (Beckmannia syzigachne; dose 15 g a.i./ha)	weeding effect in post-emergence stage, Conyza japonica (activity level) (Conyza japonica; dose 7.5 g a.i./ha)	weeding effect in post-emergence stage, Conyza japonica (activity level) (Conyza japonica; dose 15 g a.i./ha)	weeding effect in post-emergence stage, Rorippa indica (activity level) (Rorippa indica; dose 7.5 g a.i./ha)	weeding effect in post-emergence stage, Rorippa indica (activity level) (Rorippa indica; dose 15 g a.i./ha)	response of the weeds to the common doses [1]
CCOC(=O)C1(C)CC(c2cc(-n3c(=O)cc(C(F)(F)F)n(C)c3=O)c(F)cc2Cl)=NO1 (centres unmarked) [Control compound B, reference compound]	3 (Level 3: growth control rate is greater than or equal to 40% and less than 60%)	4 (Level 4: growth control rate is greater than or equal to 60% and less than 85%)	2 (Level 2: growth control rate is greater than or equal to 20% and less than 40%)	3 (Level 3: growth control rate is greater than or equal to 40% and less than 60%)	3 (Level 3: growth control rate is greater than or equal to 40% and less than 60%)	4 (Level 4: growth control rate is greater than or equal to 60% and less than 85%)	2 (Level 2: growth control rate is greater than or equal to 20% and less than 40%)	3 (Level 3: growth control rate is greater than or equal to 40% and less than 60%)	–
CCOC(=O)c1cnn(C)c1S(=O)(=O)NC(=O)Nc1nc(OC)cc(OC)n1 [Pyrazosulfuron-ethyl]	–	–	–	–	–	–	–	–	resistant
CCOC(=O)C1(C)CC(c2cc(-n3c(=O)cc(C(F)(F)F)n(C)c3=O)c(F)cc2Cl)=NO1 (centres unmarked) [drawing 745, reference compound]	–	2 (Level 2: growth control rate is greater than or equal to 20% and less than 40%)	–	1 (Level 1: growth control rate is greater than or equal to 5% and less than 20%)	–	1 (Level 1: growth control rate is greater than or equal to 5% and less than 20%)	–	1 (Level 1: growth control rate is greater than or equal to 5% and less than 20%)	–
CCOC(=O)C1(C)CC(c2cc(-n3c(=O)n(C)c(=S)n(C)c3=O)c(F)cc2Cl)=NO1 (centres unmarked) [drawing 746, reference compound]	–	2 (Level 2: growth control rate is greater than or equal to 20% and less than 40%)	–	1 (Level 1: growth control rate is greater than or equal to 5% and less than 20%)	–	1 (Level 1: growth control rate is greater than or equal to 5% and less than 20%)	–	1 (Level 1: growth control rate is greater than or equal to 5% and less than 20%)	–
